Legend:
[1] = system: undifferentiated V56 embryonic stem cells; assay: LPS challenge, cell survival by Trypan Blue; type: cell-based; settings: LPS 100 ng/ml for 60 min
Experimental: (§1) Cell pellets were further investigated by Western blot staining with anti Cox-2 and anti iNOS antibodies of 1D polyacrylamide gels.
(§2) Cell survival was assessed by Trypan Blue staining.

A 549 cells = assay: LPS challenge, cell survival by Trypan Blue; type: cell-based; settings: LPS 100 ng/ml for 60 min
Experimental: as §1, §2

3T3 fibroblasts = assay: LPS challenge, cell survival by Trypan Blue; type: cell-based; settings: LPS 100 ng/ml for 60 min
Experimental: as §1, §2

[2] = system: neurally differentiated V56 embryonic stem cells; assay: LPS challenge, cell survival by Trypan Blue; type: cell-based; settings: LPS 100 ng/ml for 60 min
Experimental: as §1, §2

[3] = system: neurons from D3 embryonic stem (ES) cells; assay: Cell culture model for chemical ischemia and neuroprotection (calcium imaging of surviving neurons); type: cell-based, mice; settings: β-methyl-cyclodextrin or filipin
Experimental: For all experiments, D3 embryonic stem (ES) cells derived from 129/sv mice [Okabe et al., 1996] were cultivated for 12 days, with passages on days 2, 4, 7 and 9 as described previously [Sommer et al., 2004]. Insult conditions: Cells (24-well plates) were pre-incubated with or without 20 nM EPO in fresh medium for 24 hours at 37° C. Cells were rinsed once with low K^+ solution (140 mM NaCl, 4.7 mM KCl, 1.2 mM KH2PO4, 2.5 mM CaCl2, 1.2 mM MgSO4, 11 mM glucose, 15 mM Hepes-NaOH, pH 7.35). Cells (either with or without EPO pre-incubation) were incubated for up to 45 min (37° C.) with either low K^+ solution or with glucose-free low K^+ solution supplemented with 1 mM KCN (chemical ischemia solution [Kume et al., 2002]). Vitality control to asses numbers of surviving neurons was performed by a brief stimulation with a low dose of glutamate (10 μM).
Functional tests by calcium imaging were performed essentially as described [Sommer et al., 2004]. Briefly, cells were loaded with 2 μM of fura-2 AM in DMEM for 45 min at 37° C. in the dark. Measurements of relative changes in [Ca^2+] were made on an inverted epifluorescence microscope (Olympus IX70 S1F2) with a Polychrom IV Monochromator (Xe-lamp, USHIO). Excitation wavelengths (λ1, λ2) and the emission wavelength were 340, 380 and 510 nm, respectively. […]

[4] = target: T1, recombinant monomeric PARP-1 (Homo sapiens, UniProt P09874); assay: PARP inhibition assay (R&D Systems); type: biochemical; settings: FIG. 4b
T1 construct: purchased R&D Systems TA4669
T1 sequence (P09874 whole entry): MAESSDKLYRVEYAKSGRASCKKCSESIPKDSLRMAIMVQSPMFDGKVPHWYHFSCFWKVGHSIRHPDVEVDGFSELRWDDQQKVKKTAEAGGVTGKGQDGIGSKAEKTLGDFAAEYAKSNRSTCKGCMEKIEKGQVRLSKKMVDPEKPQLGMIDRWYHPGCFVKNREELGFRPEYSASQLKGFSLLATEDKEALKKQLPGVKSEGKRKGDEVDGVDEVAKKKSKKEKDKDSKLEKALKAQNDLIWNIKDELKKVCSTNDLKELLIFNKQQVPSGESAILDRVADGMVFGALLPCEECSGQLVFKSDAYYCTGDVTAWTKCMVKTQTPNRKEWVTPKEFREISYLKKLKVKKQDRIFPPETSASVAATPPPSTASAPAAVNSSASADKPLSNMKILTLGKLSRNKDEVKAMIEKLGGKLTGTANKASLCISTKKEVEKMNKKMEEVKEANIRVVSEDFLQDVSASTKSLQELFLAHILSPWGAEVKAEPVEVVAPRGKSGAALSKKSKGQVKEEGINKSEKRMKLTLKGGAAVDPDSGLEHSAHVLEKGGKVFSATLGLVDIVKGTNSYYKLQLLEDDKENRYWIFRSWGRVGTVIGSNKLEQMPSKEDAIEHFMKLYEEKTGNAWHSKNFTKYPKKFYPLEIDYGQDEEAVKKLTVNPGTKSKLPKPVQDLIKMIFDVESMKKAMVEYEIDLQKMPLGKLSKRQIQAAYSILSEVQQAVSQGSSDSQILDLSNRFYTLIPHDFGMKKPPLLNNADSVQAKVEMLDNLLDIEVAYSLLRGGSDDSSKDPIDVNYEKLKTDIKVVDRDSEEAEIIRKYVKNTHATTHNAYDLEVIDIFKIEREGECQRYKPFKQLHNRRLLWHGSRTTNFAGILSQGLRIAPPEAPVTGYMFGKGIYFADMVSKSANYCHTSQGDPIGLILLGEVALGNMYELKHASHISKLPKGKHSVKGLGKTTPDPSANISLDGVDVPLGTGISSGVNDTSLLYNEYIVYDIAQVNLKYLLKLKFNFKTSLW
Text: A PARP inhibition assay from R&D Systems was used (Cat.No. TA4669) according to instructions of the supplier.
Under cellular conditions PARP-1 poly-ADP-ribosylates a host of nuclear proteins, including topoisomerase 1, 14-3-3 g and PARP-1 itself. Thus under cellular conditions, the self-modification of PARP-1 and dimerization are regulating its activity, moreover there is a tight interplay with PARG (poly-ADP- ribosyl-glycohydroxylase).

PARP-1 = assay: Affinity tag enrichment from cell extracts (1D PAGE, MALDI-TOF, immunostaining); type: binding
PARP-1, sequence (P11103 215-1013 limits assumed): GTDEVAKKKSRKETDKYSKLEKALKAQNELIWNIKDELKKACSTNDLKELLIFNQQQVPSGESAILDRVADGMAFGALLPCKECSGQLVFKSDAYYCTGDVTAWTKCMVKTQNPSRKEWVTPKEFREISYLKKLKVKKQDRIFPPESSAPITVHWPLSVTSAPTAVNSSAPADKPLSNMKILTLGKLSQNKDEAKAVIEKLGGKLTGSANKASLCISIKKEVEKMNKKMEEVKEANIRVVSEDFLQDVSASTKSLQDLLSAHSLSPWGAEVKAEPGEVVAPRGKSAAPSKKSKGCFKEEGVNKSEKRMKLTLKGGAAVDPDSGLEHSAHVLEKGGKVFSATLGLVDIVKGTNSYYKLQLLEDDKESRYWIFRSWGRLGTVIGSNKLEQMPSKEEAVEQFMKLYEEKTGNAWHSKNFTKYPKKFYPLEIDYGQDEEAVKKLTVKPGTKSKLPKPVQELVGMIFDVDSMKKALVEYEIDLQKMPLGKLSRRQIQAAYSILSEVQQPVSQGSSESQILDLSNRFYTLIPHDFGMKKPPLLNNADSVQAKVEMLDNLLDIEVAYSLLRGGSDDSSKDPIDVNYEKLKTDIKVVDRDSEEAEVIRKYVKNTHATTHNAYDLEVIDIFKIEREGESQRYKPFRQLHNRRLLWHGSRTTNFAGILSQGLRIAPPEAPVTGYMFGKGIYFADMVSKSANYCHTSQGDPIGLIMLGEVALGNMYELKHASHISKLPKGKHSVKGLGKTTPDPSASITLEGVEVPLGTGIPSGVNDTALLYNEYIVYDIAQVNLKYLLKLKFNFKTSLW
Experimental: (§3) A reactive —SCN group is introduced which binds to lysines in or near the binding site of the compound. A biotinylated linker serves for enrichment of bound protein. The synthesis is described in FIG. 1.
(§4) The affinity reagent 11 was used to bind the target covalently from fractionations of crude cell extracts of D3 ES cells and other cell lines, subsequently the affinity purified material was analysed by 1D PAGE, immunostaining, and mass spectrometry.
(§5) The subsequent fractionation, isolation and further analysis was performed according to published standard procedures (Sommer et al. 2004). A commercial anti-PARP antibody was used for staining Western blots. Mass spectrometry for independent identification of pirenzepine-tagged proteins was performed as described elsewhere recently (Vogt et al., 2003, Cahill et al., 2003).
(§6) A reactive —SCN group binds to lysins in or near the binding site of the compound. A biotinylated linker serves for enrichment of bound protein. The final affinity reagent, thiocyanato-11-[2-(4-biocytinyl-piperazin-1-yl)-acetyl]-5,11-dihydro-benzo[e]pyrido [3,2-b] [1,4] diazepin-6-one (compound (11), FIG. 1), was used to bind the target covalently from fractionations of crude cell extracts of D3 embryonic stem cells, subsequently the affinity purified material was analysed by 1D PAGE (FIG. 3a), mass spectrometry and immunostaining. […]

SIR-2 = target: T2, SIR-2 (Mus musculus, UniProt Q923E4); assay: as above; type: binding
T2 construct: endogenous in cells; host or cells: D3 embryonic stem cells / V56 embryonic stem cells (crude extract)
T2 sequence (Q923E4 1-737): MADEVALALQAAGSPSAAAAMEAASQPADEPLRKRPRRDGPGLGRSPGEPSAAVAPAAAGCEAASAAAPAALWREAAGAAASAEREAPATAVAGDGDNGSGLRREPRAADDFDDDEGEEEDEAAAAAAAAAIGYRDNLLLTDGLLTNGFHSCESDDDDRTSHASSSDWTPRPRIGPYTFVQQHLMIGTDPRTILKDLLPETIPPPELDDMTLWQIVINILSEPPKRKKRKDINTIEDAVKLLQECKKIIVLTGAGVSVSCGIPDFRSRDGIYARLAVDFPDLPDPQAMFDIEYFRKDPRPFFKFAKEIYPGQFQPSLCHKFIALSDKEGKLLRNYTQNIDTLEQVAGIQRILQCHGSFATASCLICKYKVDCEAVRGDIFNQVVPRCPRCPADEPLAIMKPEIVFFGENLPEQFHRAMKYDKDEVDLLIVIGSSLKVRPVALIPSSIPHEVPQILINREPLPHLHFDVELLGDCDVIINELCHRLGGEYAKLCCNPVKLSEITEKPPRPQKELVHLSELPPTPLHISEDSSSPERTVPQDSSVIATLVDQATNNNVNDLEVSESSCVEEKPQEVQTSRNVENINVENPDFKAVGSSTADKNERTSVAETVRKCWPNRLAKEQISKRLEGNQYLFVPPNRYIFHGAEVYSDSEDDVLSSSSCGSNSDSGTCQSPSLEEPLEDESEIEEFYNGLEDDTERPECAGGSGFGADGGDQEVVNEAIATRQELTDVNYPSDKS
Experimental: as §3, §4, §5, §6

Molecule	protection from LPS challenge [1]	protection from LPS challenge (A 549 cells)	protection from LPS challenge (3T3 fibroblasts)	protection from LPS challenge [2]	neuroprotective effect in the presence of raft-disrupting conditions [3]	PARP-1 inhibition (in words) [4]	interaction with PARP-1 (PARP-1)	interaction with SIR-2 (SIR-2)
CN1CCN(CC(=O)N2c3ccccc3C(=O)Nc3cccnc32)CC1 [Pirenzepine]	protect from LPS challenge	protect from LPS challenge	protect from LPS challenge	protect from LPS challenge	does not occur	rather weak PARP-1 inhibitor	–	–
thiocyanato 11-[2-(4-biocytinyl-piperazin-1-yl)-acetyl]-5,11-dihydro-benzo[e]pyrido[3,2-b][1,4]diazepin-6-one [affinity tag]	–	–	–	–	–	–	interacts with both proteins	interacts with both proteins
